Reference: patent publication US5925618A, “Peptides useful as somatostatin antagonists” (American Cyanamid Company, priority 1998, dated 1999)
Square brackets hold non-standard residues; d marks the D form. Peptide text beside a SMILES is read from it.

target: T1, rat SSTR2 (Rattus norvegicus, UniProt P30680); test: cAMP accumulation in forskolin-stimulated GH4 C1/SSTR2 cells; format: cell-based; conditions: Forskolin 1.25 μM + MK 678 10 nM, no peptide 1
T1 construct: expressed in transfected cells; host or cells: GH4C1 rat pituitary tumor cells
T1 sequence (P30680 whole entry): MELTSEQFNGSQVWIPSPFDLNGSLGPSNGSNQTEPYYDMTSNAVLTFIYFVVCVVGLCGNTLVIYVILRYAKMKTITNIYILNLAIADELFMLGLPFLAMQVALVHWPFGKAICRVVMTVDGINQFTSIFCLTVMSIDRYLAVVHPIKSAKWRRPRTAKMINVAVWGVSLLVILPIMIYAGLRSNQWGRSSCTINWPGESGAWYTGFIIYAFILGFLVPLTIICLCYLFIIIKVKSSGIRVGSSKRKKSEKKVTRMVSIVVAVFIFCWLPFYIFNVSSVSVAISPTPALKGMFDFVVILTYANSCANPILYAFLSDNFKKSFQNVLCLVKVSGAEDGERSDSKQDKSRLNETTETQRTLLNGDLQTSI
Text: A primary effect of SRIF upon mammalian cells is the reduction of cyclic adenosine 3',5'-monophosphate(cAMP) levels, via inhibition of adenylyl cyclase. This is the basis of a common assay for SRIF agonists and antagonists, whereby SRIF agonists reduce artificially stimulated cAMP levels, and SRIF antagonists reverse the effect of SRIF. The rat pituitary tumor cell line GH4 C1 predominantly expresses SSTR2, and responds to SRIF and to forskolin, a stimulator of adenylate cyclase (see C. M. Eppler, et al., J. Biol. Chem., 267, 15603-15612, 1992, incorporated herein by reference). A highly sensitive assay for SRIF agonists and antagonists results from additionally transfecting GH4 C1 cells with the cloned rat SSTR2, (see L. A. Price, et al., Molecular and Cellular Biology, 15, 6188-6195, 1995, incorporated herein by reference). This increases the response to SRIF and provides a greater dynamic range for the measurement of SRIF antagonist activity.
Stimulation of cells. GH4 C1 /SSTR2 cells, grown in DMEM with 10% bovine serum, are released from a tissue culture dish by incubation for several minutes at 37° C. with PBS containing 0.5 mM EDTA. Cells are washed in induction buffer (PBS containing 100 μM IBMX (an inhibitor of cAMP breakdown) and 2 mM CaCl2) at room temperature, and resuspended at 2×10^6 /mL in induction buffer. Into each well of a 96-well tray are added 50 μL of a 2× concentration of stimulants in induction buffer. These include (at final concentration) 1.25 μM forskolin, 100 nM SRIF or 10 nM of the SSTR2-selective agonist MK678 and test peptides at various concentrations. To initiate stimulation of the cells, 50 μL (100,000) cells are added to each well, mixed by shaking 10 seconds on a plate shaker and placed at 37° C. for 15 minutes. Stimulation is arrested and cells are lysed by adding 15 μL 0.33N HCl to each well and incubating the plate for 30 minutes at 37° C. Samples are neutralized by addition of 15 μL 0.25N NaOH/50 mM Hepes pH 7.4. Baseline cAMP levels are determined in samples with no added forskolin or SRIF, and each treatment is performed in triplicate.
cAMP assay. To measure accumulated cAMP in the samples, a radioimmunoassay is employed. The scintillation proximity assay (SPA, Amersham, Arlington Heights, Ill.) allows the rapid measurement of ^125 I cAMP bound to a specific antibody without separating bound radioligand from free radioligand. Each of the following reagents (50 μL) are added per well in a 96-well tray: supernatants from the cell stimulation; ^125 I cAMP; SPA beads conjugated to monkey anti-rabbit IgG antibodies; and rabbit anti-cAMP antibodies. For the standard curve, known amounts of cAMP (0.2-12.8 pmol) are added in place of cell supernatants. The 96-well tray is sealed, shaken at room temperature overnight and measured for bound radioligand in a MicroBeta liquid scintillation counter (Wallac, Gaithersburg, Md.). The standard curve is determined for each experiment by performing a nonlinear regression (exponential decay) analysis of cpm measured for the cAMP standards vs. their log concentrations, and test sample values are determined by using Prism software (Graphpad Software Inc., San Diego, Calif.) and are shown in Table II and FIG. 1. FIG. I illustrates the antagonist activity of Peptide 1.
The intrinsic activity of an SRIF antagonist is the percent reversal of the SSTR2, activation by SRIF or MK678, wherein 0% is defined by cAMP levels in samples treated with forskolin plus SRIF or MK678 and 100% is the cAMP level measured after treatment with forskolin alone. Therefore, increased intrinsic activity of a test compound indicates increased antagonist activity of said test compound.
FIG. […]
An inverse agonist is a compound that is not only a pure antagonist (i.e. lacking agonist activity), but also blocks the constitutive activity of an unoccupied receptor. One indication of inverse agonist activity is the ability of a SRIF antagonist to increase cAMP levels in the absence of added SRIF. […]

Row | Compound | cAMP [pM per 4 × 10^4 cells]
1 | CC(C)[C@@H]1NC(=O)[C@H](CCCCN)NC(=O)[C@@H](Cc2c[nH]c3ccccc23)NC(=O)[C@H](Cc2ccc(O)cc2)NC(=O)[C@H](C)N(C)C(=O)[C@H](Cc2ccccc2)NC1=O [MK678, reference compound] | 0.91

same assay, conditions: Forskolin 1.25 μM alone

Row | Compound | cAMP [pM per 4 × 10^4 cells]
2 | C=C[C@@]1(C)CC(=O)[C@]2(O)[C@@]3(C)[C@@H](O)CCC(C)(C)[C@@H]3[C@H](O)[C@H](OC(C)=O)[C@@]2(C)O1 [Forskolin, forskolin, reference compound] | 3.04

same assay, conditions: GH4-C1; test peptide 2 μM; read-out: cAMP Assay, Intrinsic activity (percent reversal of SSTR2 activation by SRIF or MK678)

Row | Compound | Emax [%]
3 | CC[C@@H](C)[C@@H](NC(=O)[C@@H](Cc1ccccc1)NC(=O)[C@@H](C)NC(C)=O)C(=O)N[C@H](CCCNC(=N)N)C(=O)N[C@H](Cc1c[nH]c2ccccc12)C(=O)N[C@H](Cc1ccccc1)C(N)=O [Peptide 2, a-f-i-r-w-f] (Ac-[dA][dF][dI][dR][dW][dF]-NH2) | 13
4 | CC[C@@H](C)[C@@H](NC(=O)[C@@H](C)NC(=O)[C@@H](Cc1c[nH]cn1)NC(C)=O)C(=O)N[C@H](CCCNC(=N)N)C(=O)N[C@H](Cc1c[nH]c2ccccc12)C(=O)N[C@H](Cc1ccccc1)C(N)=O [Peptide 3, h-a-i-r-w-f] (Ac-[dH][dA][dI][dR][dW][dF]-NH2) | 9.33
5 | CC(=O)N[C@H](Cc1c[nH]cn1)C(=O)N[C@H](Cc1ccccc1)C(=O)N[C@H](C)C(=O)N[C@H](CCCNC(=N)N)C(=O)N[C@H](Cc1c[nH]c2ccccc12)C(=O)N[C@H](Cc1ccccc1)C(N)=O [Peptide 4, h-f-a-r-w-f] (Ac-[dH][dF][dA][dR][dW][dF]-NH2) | 41.8
6 | CC[C@@H](C)[C@@H](NC(=O)[C@@H](Cc1ccccc1)NC(=O)[C@@H](Cc1c[nH]cn1)NC(C)=O)C(=O)N[C@H](C)C(=O)N[C@H](Cc1c[nH]c2ccccc12)C(=O)N[C@H](Cc1ccccc1)C(N)=O [Peptide 5, h-f-i-a-w-f] (Ac-[dH][dF][dI][dA][dW][dF]-NH2) | 44.1
7 | CC[C@@H](C)[C@@H](NC(=O)[C@@H](Cc1ccccc1)NC(=O)[C@@H](Cc1c[nH]cn1)NC(C)=O)C(=O)N[C@H](CCCNC(=N)N)C(=O)N[C@H](C)C(=O)N[C@H](Cc1ccccc1)C(N)=O [Peptide 6, h-f-i-r-a-f] (Ac-[dH][dF][dI][dR][dA][dF]-NH2) | 13.4
8 | CC[C@@H](C)[C@@H](NC(=O)[C@@H](Cc1ccccc1)NC(C)=O)C(=O)N[C@H](CCCNC(=N)N)C(=O)N[C@H](Cc1c[nH]c2ccccc12)C(=O)N[C@H](Cc1ccccc1)C(N)=O [Peptide 7, f-i-r-w-f] (Ac-[dF][dI][dR][dW][dF]-NH2) | -7.2
9 | CC[C@@H](C)[C@@H](NC(=O)[C@@H](Cc1c[nH]cn1)NC(C)=O)C(=O)N[C@H](CCCNC(=N)N)C(=O)N[C@H](Cc1c[nH]c2ccccc12)C(=O)N[C@H](Cc1ccccc1)C(N)=O [Peptide 8, h-i-r-w-f] (Ac-[dH][dI][dR][dW][dF]-NH2) | 2.76
10 | CC(=O)N[C@H](Cc1c[nH]cn1)C(=O)N[C@H](Cc1ccccc1)C(=O)N[C@H](CCCNC(=N)N)C(=O)N[C@H](Cc1c[nH]c2ccccc12)C(=O)N[C@H](Cc1ccccc1)C(N)=O [Peptide 9, h-f-r-w-f] (Ac-[dH][dF][dR][dW][dF]-NH2) | 6.36
11 | CC[C@@H](C)[C@@H](NC(=O)[C@@H](Cc1ccccc1)NC(=O)[C@@H](Cc1c[nH]cn1)NC(C)=O)C(=O)N[C@H](Cc1c[nH]c2ccccc12)C(=O)N[C@H](Cc1ccccc1)C(N)=O [Peptide 10, h-f-i-w-f] (Ac-[dH][dF][dI][dW][dF]-NH2) | 25.3
12 | CC[C@@H](C)[C@@H](NC(=O)[C@@H](Cc1ccccc1)NC(=O)[C@@H](Cc1c[nH]cn1)NC(C)=O)C(=O)N[C@H](CCCNC(=N)N)C(=O)N[C@H](Cc1ccccc1)C(N)=O [Peptide 11, h-f-i-r-f] (Ac-[dH][dF][dI][dR][dF]-NH2) | 12.1
13 | CC[C@@H](C)[C@@H](NC(=O)[C@@H](Cc1ccccc1)NC(=O)[C@@H](Cc1c[nH]cn1)NC(C)=O)C(=O)N[C@H](CCCNC(=N)N)C(=O)N[C@H](Cc1c[nH]c2ccccc12)C(N)=O [Peptide 12, h-f-i-r-w] (Ac-[dH][dF][dI][dR][dW]-NH2) | 29.1
14 | CC[C@@H](C)[C@@H](NC(=O)[C@@H](Cc1ccccc1)NC(=O)[C@H](Cc1c[nH]cn1)NC(C)=O)C(=O)N[C@H](CCCNC(=N)N)C(=O)N[C@H](Cc1c[nH]c2ccccc12)C(=O)N[C@H](Cc1ccccc1)C(N)=O [Peptide 13, H-f-i-r-w-f] (Ac-H[dF][dI][dR][dW][dF]-NH2) | 26.2
15 | CC[C@@H](C)[C@@H](NC(=O)[C@H](Cc1ccccc1)NC(=O)[C@@H](Cc1c[nH]cn1)NC(C)=O)C(=O)N[C@H](CCCNC(=N)N)C(=O)N[C@H](Cc1c[nH]c2ccccc12)C(=O)N[C@H](Cc1ccccc1)C(N)=O [Peptide 14, h-F-i-r-w-f] (Ac-[dH]F[dI][dR][dW][dF]-NH2) | 29.6
16 | CC[C@H](C)[C@H](NC(=O)[C@@H](Cc1ccccc1)NC(=O)[C@@H](Cc1c[nH]cn1)NC(C)=O)C(=O)N[C@H](CCCNC(=N)N)C(=O)N[C@H](Cc1c[nH]c2ccccc12)C(=O)N[C@H](Cc1ccccc1)C(N)=O [Peptide 15, h-f-I-r-w-f] (Ac-[dH][dF]I[dR][dW][dF]-NH2) | 9.71
17 | CC[C@@H](C)[C@@H](NC(=O)[C@@H](Cc1ccccc1)NC(=O)[C@@H](Cc1c[nH]cn1)NC(C)=O)C(=O)N[C@@H](CCCNC(=N)N)C(=O)N[C@H](Cc1c[nH]c2ccccc12)C(=O)N[C@H](Cc1ccccc1)C(N)=O [Peptide 16, h-f-i-R-w-f] (Ac-[dH][dF][dI]R[dW][dF]-NH2) | 43.6
18 | CC[C@@H](C)[C@@H](NC(=O)[C@@H](Cc1ccccc1)NC(=O)[C@@H](Cc1c[nH]cn1)NC(C)=O)C(=O)N[C@H](CCCNC(=N)N)C(=O)N[C@@H](Cc1c[nH]c2ccccc12)C(=O)N[C@H](Cc1ccccc1)C(N)=O [Peptide 17, h-f-i-r-W-f] (Ac-[dH][dF][dI][dR]W[dF]-NH2) | 50.2
19 | CC[C@@H](C)[C@@H](NC(=O)[C@@H](Cc1ccccc1)NC(=O)[C@@H](Cc1c[nH]cn1)NC(C)=O)C(=O)N[C@H](CCCNC(=N)N)C(=O)N[C@H](Cc1c[nH]c2ccccc12)C(=O)N[C@@H](Cc1ccccc1)C(N)=O [Peptide 18, h-f-i-r-w-F] (Ac-[dH][dF][dI][dR][dW]F-NH2) | 46.7
20 | CC[C@@H](C)[C@@H](NC(=O)[C@@H](Cc1ccc(O)cc1)NC(=O)[C@@H](CCCCN)NC(C)=O)C(=O)N[C@H](CCCNC(=N)N)C(=O)N[C@H](Cc1c[nH]c2ccccc12)C(=O)N[C@H](Cc1ccccc1)C(N)=O [Peptide 19, k-y-i-r-w-f] (Ac-[dK][dY][dI][dR][dW][dF]-NH2) | 33.3
21 | CC[C@@H](C)[C@@H](NC(=O)[C@@H](Cc1ccc(O)cc1)NC(=O)[C@@H](Cc1c[nH]cn1)NC(C)=O)C(=O)N[C@H](CCCNC(=N)N)C(=O)N[C@H](Cc1c[nH]c2ccccc12)C(=O)N[C@H](Cc1ccccc1)C(N)=O [Peptide 20, h-y-i-r-w-f] (Ac-[dH][dY][dI][dR][dW][dF]-NH2) | 56.5
22 | CC[C@@H](C)[C@@H](NC(=O)[C@@H](Cc1c[nH]c2ccccc12)NC(=O)[C@@H](Cc1c[nH]cn1)NC(C)=O)C(=O)N[C@H](CCCNC(=N)N)C(=O)N[C@H](Cc1c[nH]c2ccccc12)C(=O)N[C@H](Cc1ccccc1)C(N)=O [Peptide 21, h-w-i-r-w-f] (Ac-[dH][dW][dI][dR][dW][dF]-NH2) | 54.7

same assay, conditions: forskolin stimulated cells; agonist alone or with 10 μM peptide 1

Row | Compound | Maximum (cAMP level of agonist dose response) | Minimum (cAMP level of agonist dose response)
23 | CC(C)[C@@H]1NC(=O)[C@H](CCCCN)NC(=O)[C@@H](Cc2c[nH]c3ccccc23)NC(=O)[C@H](Cc2ccc(O)cc2)NC(=O)[C@H](C)N(C)C(=O)[C@H](Cc2ccccc2)NC1=O [MK678, reference compound] | 6.431 | 2.673
